From US5559158A, “Pharmaceutical composition” (Abbott Laboratories, priority 1994, dated 1996)

Legend:
[1] = Oral bioavailability study in dogs; set-up: species or system beagle dogs; details: dog, in vivo, 5 mg/kg, summary statement, dose not stated
Description: Each dog received a single solid dosage form corresponding to a 5 mg/kg dose of the drug.

HIV-2 protease = assay: Inhibition of HIV-2 protease; type: biochemical; details: in words
HIV-1 protease = assay: Inhibition of HIV-1 protease; type: biochemical; details: in words
[2] = listed as compound of formula II

Structure (SMILES)	bioavailability [1] [%]	inhibition of HIV-2 protease (HIV-2 protease)	inhibition of HIV-1 protease (HIV-1 protease)	inhibition of HIV-2 protease (HIV-2 protease; [2])	inhibition of HIV-1 protease (HIV-1 protease; [2])
CC(C)c1nc(CN(C)C(=O)NC(C(=O)N[C@@H](Cc2ccccc2)C[C@H](O)[C@H](Cc2ccccc2)NC(=O)OCc2cncs2)C(C)C)cs1 (stereo partly drawn) [Compound III, (2S,3S,5S)-5-(N-(N-((N-Methyl-N-((2-isopropyl-4-thiazolyl)methyl)-amino)carbonyl)valinyl)amino)-2-(N((5-thiazolyl)methoxycarbonyl)amino)-1,6-diphenyl-3-hydroxyhexane]	< 2	inhibitors	inhibitors		
CC(C)c1nc(CN(C)C(=O)NC(C(=O)NC(Cc2ccccc2)CC(O)C(Cc2ccccc2)NC(=O)OCc2cncs2)C(C)C)cs1 (stereo not shown) [Compound II]		inhibitors	inhibitors	especially effective	especially effective
